The Deep4Chem optical property database
Each block holds one compound with its values, some of them ahead of it.

Assay: solvent given as SMILES

SMILES: CC(C)(C)c1ccc2oc(-c3ccc(-c4nc5cc(C(C)(C)C)ccc5o4)s3)nc2c1
absorption maximum (in C1CCCCC1): 372 nm
absorption maximum (in C1CCOC1): 374 nm
absorption maximum (in CC1CCCCC1): 373 nm
absorption maximum (in CC#N): 371 nm
absorption maximum (in CCCCO): 375 nm
absorption maximum (in CCO): 373 nm
absorption maximum (in CN(C)C=O): 374 nm
absorption maximum (in Cc1ccccc1): 376 nm
absorption maximum (in Clc1ccccc1Cl): 379 nm
absorption maximum (in c1ccccc1): 377 nm

SMILES: Cc1c(C2=[N+]3C(=Cc4c(C)c5ccccc5n4[B-]3(F)F)c3ccccc32)[nH]c2ccccc12
absorption maximum (in C1CCOC1): 608 nm
absorption maximum (in CC#N): 591 nm
absorption maximum (in CCCCCC): 623 nm
absorption maximum (in CO): 598 nm
absorption maximum (in Cc1ccccc1): 625 nm
absorption maximum (in ClCCl): 611 nm

SMILES: CCOc1ccc2c(-c3nc(-c4ccccc4F)no3)cc(=O)oc2c1
absorption maximum (in CCO): 345 nm
absorption maximum (in ClC(Cl)Cl): 393 nm

SMILES: COc1ccc2c(c1)c(=O)c1ccccc1n2CCCCCC(=O)O
absorption maximum (in O): 422 nm

SMILES: COCCOCCOCCOCC(COCCOCCOCCOC)Oc1cc(/C=C/c2ccc(/C=C/[N+](=O)[O-])cc2)c(OC(COCCOCCOCCOC)COCCOCCOCCOC)cc1/C=C/c1ccc(/C=C/[N+](=O)[O-])cc1
absorption maximum (in ClCCl): 447 nm

SMILES: COc1ccc(/C=C(\C)c2nc3ccccc3o2)cc1
absorption maximum (in C1CCCCC1): 320 nm
absorption maximum (in CO): 325 nm

SMILES: CCOC(=O)c1c2c3c(ccc(C)c3c3cc4ccccc4cc13)N(C)C2=O
absorption maximum (in CC#N): 404 nm

SMILES: CC(C)[Si](C#Cc1c2ccccc2c(C#Cc2c3ccccc3c(C#Cc3c4ccccc4c(C#Cc4c5ccccc5c(C#Cc5c6ccccc6c(C#Cc6c7ccccc7c(C#C[Si](C(C)C)(C(C)C)C(C)C)c7ccccc67)c6ccccc56)c5ccccc45)c4ccccc34)c3ccccc23)c2ccccc12)(C(C)C)C(C)C
absorption maximum (in Cc1ccccc1): 589 nm

SMILES: CC(C)(C)NC(=O)c1cccc2ccc3c4cc(Cl)ccc4c4ccc(Cl)cc4c3c12
absorption maximum (in ClCCl): 335 nm

SMILES: Cc1ccc(-n2c(-c3ccccc3[NH-])[nH+]c3c4ccccc4c4ccccc4c32)cc1
absorption maximum (in Cc1ccccc1): 363 nm

SMILES: Cc1cc(C)c(B(c2cc(-c3ccc(C(C)(C)C)cc3)sc2-c2sc(-c3ccc(C(C)(C)C)cc3)cc2P(=O)(c2ccccc2)c2ccccc2)c2c(C)cc(C)cc2C)c(C)c1
absorption maximum (in CO): 396 nm

SMILES: c1ccc(-c2c3ccccc3c(-c3ccccc3)c3cc4ccccc4cc23)cc1
absorption maximum (in ClCCl): 493 nm

SMILES: COc1ccc2c(c1)c1cc(OC)ccc1n2-c1ccc(S(=O)(=O)c2ccc(-n3c4ccc(OC)cc4c4cc(OC)ccc43)cc2)cc1
absorption maximum (in Cc1ccccc1): 369.69 nm

SMILES: Nc1cc2nc3cc(F)c(F)cc3nc2cc1N
absorption maximum (in CCO): 433 nm

SMILES: N#C[Se]CCCCCOc1ccc2ccc(=O)oc2c1
absorption maximum (in C1CCCCC1): 321 nm
absorption maximum (in C1CCOC1): 322 nm
absorption maximum (in C1COCCO1): 319 nm
absorption maximum (in CC#N): 321 nm
absorption maximum (in CCCCCCC): 319 nm
absorption maximum (in CCO): 323 nm
absorption maximum (in CN(C)C=O): 322 nm
absorption maximum (in CO): 322 nm
absorption maximum (in O): 324 nm
absorption maximum (in OCCO): 326 nm

SMILES: CC1=N/C(=C\c2ccc(C#N)c(N(C)C)c2)C(=O)N1C
absorption maximum (in C1CCOC1): 368 nm
absorption maximum (in CC#N): 369 nm
absorption maximum (in CCCCCC): 362 nm

SMILES: COC(=O)c1ccc2ccc3cccc4ccc1c2c34
absorption maximum (in C1CCOC1): 379 nm
absorption maximum (in CC#N): 379 nm
absorption maximum (in CCCCCC): 379 nm
absorption maximum (in CCO): 380 nm
absorption maximum (in CN(C)C=O): 380 nm
absorption maximum (in CO): 379 nm
absorption maximum (in Cc1ccccc1): 381 nm
absorption maximum (in ClCCl): 379 nm

SMILES: C(#Cc1ccc(-n2c3ccccc3c3ccccc32)cc1)c1ccc(-c2nc(-c3ccc(C#Cc4ccc(-n5c6ccccc6c6ccccc65)cc4)cc3)nc(-c3ccc(C#Cc4ccc(-n5c6ccccc6c6ccccc65)cc4)cc3)n2)cc1
absorption maximum (in ClCCl): 361 nm

SMILES: Cc1ccsc1-c1cc2c3cc(-c4sccc4C)c4nc(C(F)(F)C(F)(F)C(F)(F)F)nc5c(-c6sccc6C)cc(c6cc(-c7sccc7C)c7nc(C(F)(F)C(F)(F)C(F)(F)F)nc1c7c26)c3c45
absorption maximum (in C1CCOC1): 532 nm

SMILES: O=C1Cc2ccc(cc2)CC(=O)Cc2ccc(c3nsnc23)C1
absorption maximum (in C1CCCCC1): 384 nm
absorption maximum (in CC#N): 382 nm
absorption maximum (in ClC(Cl)Cl): 384 nm

SMILES: CCCCCCCCCCCCN1C(=O)c2cccc3c(N(Cc4ccccn4)Cc4ccccn4)c4ccccc4c(c23)C1=O
absorption maximum (in C1CCOC1): 497 nm
absorption maximum (in CCCCCC): 480 nm
absorption maximum (in CCO): 488 nm
absorption maximum (in Cc1ccccc1): 492 nm
absorption maximum (in ClCCl): 500 nm

SMILES: CCn1c2ccccc2c2cc(/C=C/c3cc(/C=C/c4ccc5c(c4)c4ccccc4n5CC)ncn3)ccc21
absorption maximum (in C1CCOC1): 397 nm
absorption maximum (in CCOC(C)=O): 395 nm
absorption maximum (in CN(C)C=O): 405 nm
absorption maximum (in Cc1ccccc1): 397 nm
absorption maximum (in ClCCl): 405 nm

SMILES: CCCCN1C(=O)C(=CC=C2N(CCCC)c3ccccc3N2CCCC)C(=O)N(CCCC)C1=S
absorption maximum (in CCCCCC): 470 nm
absorption maximum (in CCO): 424 nm
absorption maximum (in CN(C)C=O): 431 nm
absorption maximum (in Cc1ccccc1): 468 nm
absorption maximum (in ClC(Cl)Cl): 461 nm
absorption maximum (in ClCCl): 456 nm

SMILES: CCCC1(CCC)c2ccccc2-c2ccc(-c3ccc(C(C)(C)C)cc3)cc21
absorption maximum (in C1CCCCC1): 314 nm

SMILES: CCCCCCOc1ccc(C#Cc2ccc(C#CC#Cc3ccc(C#Cc4ccc(OCCCCCC)c(OCCCCCC)c4)c4nsnc34)c3nsnc23)cc1OCCCCCC
absorption maximum (in CN(C)C=O): 468 nm
absorption maximum (in COc1ccccc1): 472 nm
absorption maximum (in Cc1ccccc1): 470 nm
absorption maximum (in ClC(Cl)Cl): 472 nm
absorption maximum (in ClCCCl): 471 nm
absorption maximum (in ClCCl): 469 nm

SMILES: CCCCN1C(=O)C2=C(c3ccc(-c4ccc5c(c4)C(C)(C)c4ccccc4-5)cc3)NC(=O)C2=C1c1ccc(-c2ccc3c(c2)C(C)(C)c2ccccc2-3)cc1
absorption maximum (in ClCCl): 497 nm

SMILES: Clc1ccc(N2c3sc4ccccc4c3Sc3c2sc2ccccc32)cc1
absorption maximum (in ClCCl): 418 nm

The next lines start with the values.

absorption maximum (in C1CCOC1): 369 nm
absorption maximum (in CC#N): 364 nm
absorption maximum (in CN(C)C=O): 369 nm
absorption maximum (in ClC(Cl)Cl): 371 nm
absorption maximum (in c1ccccc1): 371 nm
SMILES: COc1ccc(C#Cc2ccc(C#Cc3ccc(C#Cc4ccccc4C#N)cc3C#N)cc2C#N)cc1

absorption maximum (in ClC(Cl)Cl): 386 nm
SMILES: Cc1ccc2c3ccc(C)cc3c3cc4c(C)cc(=O)oc4cc3c2c1

absorption maximum (in ClC(Cl)Cl): 443 nm
SMILES: CN(C)c1ccc(-c2ccc(-c3ccc(N(C)C)cc3)c3nc(-c4ccccc4)c(-c4ccccc4)nc23)cc1

absorption maximum (in CC#N): 354 nm
SMILES: CCNc1cc2oc(=O)cc(C)c2cc1C

absorption maximum (in ClCCl): 323 nm
SMILES: Cc1cc2c3ccccc3[nH]c2c2[nH]c3ccccc3c12

absorption maximum (in C1CCOC1): 612 nm
absorption maximum (in CS(C)=O): 622 nm
absorption maximum (in ClCCl): 606 nm
SMILES: COc1cc(OC)cc(C2=C3C(C)=C(I)C(C)=[N+]3[B-](F)(F)n3c(/C=C/c4c[nH]c5ccc([N+](=O)[O-])cc45)c(I)c(C)c32)c1

absorption maximum (in ClCCl): 398 nm
SMILES: CCCCC(CC)Cn1c2cc(C#N)ccc2c2cc(-c3ccc(N(c4ccccc4)c4ccccc4)cc3)c(C#N)cc21 (configuration not stated)

absorption maximum (in C1COCCO1): 528 nm
absorption maximum (in ClCCl): 549 nm
SMILES: CCCCN(CCCC)c1ccc(/C=C/c2ccc3nc(/C=C/c4nc5ccc(/C=C/c6ccc(N(CCCC)CCCC)cc6)cc5n(CCC)c4=O)c(=O)n(CCC)c3c2)cc1

absorption maximum (in ClC(Cl)Cl): 336 nm
absorption maximum (in ClCCl): 337 nm
SMILES: COc1cc2cc(OC)c(-c3ccc([N+](=O)[O-])cc3)cc2cc1-c1ccc([N+](=O)[O-])cc1

absorption maximum (in CCO): 471 nm
SMILES: CN1c2cc3nc4cc(Cl)c(Cl)cc4nc3cc2N(C)C1(C)C

absorption maximum (in CC#N): 340 nm
absorption maximum (in O): 333 nm
SMILES: Nc1cccc2ncccc12

absorption maximum (in CC#N): 379 nm
SMILES: Cc1cc2nc3c(=O)[nH]c(=O)n(C)c3nc2cc1C

absorption maximum (in CC#N): 325 nm
SMILES: COc1ccc(-n2nc(C#N)c(N3CCC(N4CCCCC4)CC3)n2)cc1

absorption maximum (in ClCCl): 349 nm
SMILES: CC(C)(C)c1ccc2c(c1)c1cc(C(C)(C)C)ccc1n2-c1ccc(N(c2ccc(-c3ccc(N(c4ccc(-n5c6ccc(C(C)(C)C)cc6c6cc(C(C)(C)C)ccc65)cc4)c4ccc(-n5c6ccc(C(C)(C)C)cc6c6cc(C(C)(C)C)ccc65)cc4)cc3)cc2)c2ccc(-n3c4ccc(C(C)(C)C)cc4c4cc(C(C)(C)C)ccc43)cc2)cc1

absorption maximum (in ClCCl): 538 nm
SMILES: CCCCCCCCCCCCCCCCCCOC(=O)/C=C/C1=CC2=C(c3c(C)cc(C)cc3C)c3cccn3[B-](F)(F)[N+]2=C1

absorption maximum (in CCO): 644 nm
absorption maximum (in CO): 641 nm
absorption maximum (in CS(C)=O): 651 nm
absorption maximum (in O): 638 nm
SMILES: CN1/C(=C/C=C(/C=C/c2sc3ccccc3[n+]2C)c2cc(F)cc(F)c2)Sc2ccccc21

absorption maximum (in ClCCl): 495 nm
SMILES: COc1ccc(-c2c3ccccc3c(-c3ccc(OC)cc3)c3cc4ccccc4cc23)cc1

absorption maximum (in ClCCl): 376 nm
SMILES: FC(F)(F)c1ccc(-n2c(-c3ccc(N(c4ccc(-c5ccc(N(c6ccc(-c7nc8c9ccccc9c9ccccc9c8n7-c7ccc(C(F)(F)F)cc7)cc6)c6ccc(-c7nc8c9ccccc9c9ccccc9c8n7-c7ccc(C(F)(F)F)cc7)cc6)cc5)cc4)c4ccc(-c5nc6c7ccccc7c7ccccc7c6n5-c5ccc(C(F)(F)F)cc5)cc4)cc3)nc3c4ccccc4c4ccccc4c32)cc1

absorption maximum (in ClCCl): 375 nm
SMILES: CCOC(=O)c1ccc(C2CC(c3cccc4ccccc34)=NN2c2ccc(F)cc2)cc1 (configuration not stated)

absorption maximum (in ClCCl): 622 nm
SMILES: CC(C)c1cccc(C(C)C)c1N1C(=O)c2ccc3c(-c4ccc(C(=O)O)cc4)c4c5ccc6c7c(ccc(c(-c8ccc(C(=O)O)cc8)c4c4ccc(c2c34)C1=O)c75)C(=O)N(c1c(C(C)C)cccc1C(C)C)C6=O

absorption maximum (in CC1CCCCC1): 470 nm
SMILES: c12c3c4c5c1c1c6c7c2c2c8c3c3c9c4c4c%10c5c5c1c1c6c6c%11c%12c%13c%14c%15c%16c%17c%14c%14c%18c%13c%11c1c1c5c%10c5c(c%14c%10c%17c%11c%13c%16c%14c%16c%15c%12c%12c%16c(c2c7c%126)c2c8c3c(c%13c%142)c2c9c4c5c%10c%112)c%181

absorption maximum (in ClCCl): 391 nm
SMILES: COc1cc(OC)cc(C2=[O+][B-](F)(F)OC(c3cccs3)=C2)c1

absorption maximum (in CN(C)C=O): 374 nm
SMILES: CCN(CC)c1ccc(-c2nc(Oc3ccc(-c4nc5ccccc5s4)cc3)nc(Oc3ccc(-c4nc5ccccc5s4)cc3)n2)cc1

absorption maximum (in ClC(Cl)Cl): 634 nm
SMILES: F[B-]1(F)n2c(cc3ccc4ccccc4c32)C(c2ccc(I)cc2)=C2C=C3CCc4ccccc4C3=[N+]21
